Molecules are shown by their SMILES. Values after ≈ are worked out from the molar mass of the structure shown.

Experiment [1] has as its system PMMoV. The experiment can be described thus: Antiviral activity assay against PMMoV, curative activity. The class given is in vivo, Pepper mild mottle virus (PMMoV). More on the design: Curative activity: concentration or dose not given beside the values. The settings on record: against PMMoV, average of three replicates, ± standard deviation; for EC50: Pepper mild mottle virus, read-out: EC50 of curative activity. As to the method:
(§1) Virions were isolated and extracted from leaves of N. benthamiana infected with PMMoV referring to the method recorded in the literature. And the inhibiting activities of C1–C38 against PMMoV were assessed with reference to the literature as well [26, 34].

The test system of experiment [2] is PMMoV. Put plainly: Antiviral activity assay against PMMoV, protective activity. It is filed as in vivo, Pepper mild mottle virus (PMMoV). More on the design: Protective activity: concentration or dose not given beside the values. Conditions: against PMMoV, average of three replicates, ± standard deviation; for EC50: Pepper mild mottle virus, read-out: EC50 of protective activity. The protocol:
as §1

The subject of experiment [3] is PMMoV. The experiment can be described thus: Antiviral activity assay against PMMoV, inactivating activity. The class given is in vivo, Pepper mild mottle virus (PMMoV). Conditions: against PMMoV, average of three replicates, ± standard deviation; for pest or weed control at 500 µg/mL / EC50: Pepper mild mottle virus; for pest or weed control at 500 µg/mL: read-out: Inactivating activity; for EC50: read-out: EC50 of inactivating activity. As to the method:
as §1

Experiment [4] deals with T1, PMMoV CP (Pepper mild mottle virus, UniProt P69509). Put plainly: Microscale thermophoresis (MST) binding affinity with PMMoV CP. The protocol: The binding affinities of compounds with PMMoV CP were analyzed by MST based on the procedures delineated in the literature.
A general note: MST reads how a fluorescent partner responds to local heating, with and without ligand.

Experiment [5] deals with T1, PMMoV CP. Put plainly: ABPP probe capture of PMMoV CP (Western blot), concentration dependence and competitive inhibition. The class given is binding. Conditions: for capture of the 17 kDa protein from PMMoV: Western blot, identical concentration, Fig. S132; for capture of PMMoV CP: same concentration of 100 µM; for capture of PMMoV CP / labeling of PMMoV CP by probe: Fig. 1B. The text has this:
ABPP technology utilized its unique chemical probe strategy to selectively capture target proteins and was regarded as a well-established approach for discovering target proteins.
(Immunoblotting shows a protein as a band on a membrane.)

For a further experiment, the system named is PMMoV CP and I3QHX5. Put plainly: BiFC interaction of PMMoV CP and PMMoV CP^Y13A with I3QHX5 before and after application of C1. The settings on record: addition of C1, 30, 36 and 42 hpi, Fig. 6A. It is filed as cell-based, N. benthamiana. As to the method:
Designed primers to construct vectors of LCA and BiFC via homologous recombination. Extracted plasmids and waited for sequencing confirmation before transforming them into GV3101 (pU19). A. tumefaciens transient transformation solution (200 μM acetosyringone, 10 mM MgCl2, and 10 mM MES, pH = 5.6) was prepared to resuspend the organisms with a final OD600 of 1.0, then mixed them with equal OD600 and volume before being infiltrated into N. benthamiana of the same growth stage. […]

T1 sequence (P69509 2-157): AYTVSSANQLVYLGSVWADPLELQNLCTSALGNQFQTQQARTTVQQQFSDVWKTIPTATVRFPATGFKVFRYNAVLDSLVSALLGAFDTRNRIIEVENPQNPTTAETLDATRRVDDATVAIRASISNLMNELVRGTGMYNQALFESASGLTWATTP

For orientation: EC50 means the concentration at which the effect is half-maximal. As usually defined, the Kd is the free concentration of one partner at which half of the binding sites on the other are occupied at equilibrium, for simple one-to-one binding. Turning to `CC(=O)OCC1OC(n2cnc3c(N4CCOCC4)ncnc32)C(NS(=O)(=O)c2ccc([N+](=O)[O-])cc2)C(OC(C)=O)C1OC(C)=O` (stereo not drawn) [C1], in the experiment on PMMoV [1], the concentration giving a half-maximal response (EC50) is 17 ± 3.9 µg/mL (≈ 25.1 µM) and the Curative activity stood at 73.7 ± 5.2%. In addition, in the experiment on PMMoV [2], the EC50 stood at 86.9 ± 8.8 µg/mL (≈ 128 µM) and the Protective activity is given as 64.3 ± 2.8%. Also, in the experiment on PMMoV [3] (at 500 µg/mL), the pest or weed control at 500 µg/mL stood at 76.4% and the Inactivating activity was 76.4 ± 2.6%. Moreover, the EC50 with PMMoV [3] came to 37 ± 4.4 µg/mL (≈ 54.6 µM). The Kd at PMMoV CP [4] was determined as 1.5 µM. For the same compound, at PMMoV CP [5], the “capture of the 17 kDa protein from PMMoV” value was “neither C1 nor DMSO exhibited such a capacity” and the “capture of PMMoV CP” value is “could not”. Moreover, the “competitive inhibition of C2 labeling of PMMoV CP” value at PMMoV CP [5] (increasing concentrations of C1, Fig. 1C) is recorded as “competitively inhibited the interaction of C2 with PMMoV CP”. Moreover, the “effect on interaction of PMMoV CP and PMMoV CP^Y13A with I3QHX5” value in the experiment with PMMoV CP and I3QHX5 is recorded as “affected the interaction”.

Take `C#CCN1CCN(c2ncnc3c2ncn3C2OC(COC(C)=O)C(OC(C)=O)C(OC(C)=O)C2NS(=O)(=O)c2ccc([N+](=O)[O-])cc2)CC1` (stereo not drawn) [C2]: in the experiment with PMMoV [1], the concentration for a half-maximal effect (EC50) was 66.6 ± 4.5 µg/mL (≈ 93.2 µM) and the Curative activity is recorded as 67.3 ± 4.3%. For the same compound, in the experiment with PMMoV [2], the concentration giving a half-maximal response (EC50) was found to be 64.5 ± 4.5 µg/mL (≈ 90.2 µM) and the Protective activity is 65.9 ± 3.0%. For the same compound, in the experiment with PMMoV [3] (at 500 µg/mL), the pest or weed control at 500 µg/mL amounted to 67.4 ± 3.9%. Also, the half-maximal effective concentration (EC50) in the experiment on PMMoV [3] amounted to 40.7 ± 2.3 µg/mL (≈ 56.9 µM). For the same compound, at PMMoV CP [5], the “capture of the 17 kDa protein from PMMoV” value was “capable of capturing the protein with a molecular weight of 17 kDa” and the “capture of PMMoV CP” value is “could capture PMMoV CP”. Further, the “labeling of PMMoV CP by probe” value at PMMoV CP [5] (concentrations of 10–50 µM) was “successfully labeled protein”. Also, the “labeling of PMMoV CP by probe” value at PMMoV CP [5] (concentrations reduced to 5–1 µM) is on record as “failed to do so”.

In the case of `CC(=O)OCC1OC(n2cnc3c(N4CCOCC4)ncnc32)C(NS(=O)(=O)c2ccc(C)cc2)C(OC(C)=O)C1OC(C)=O` (stereo not drawn) [C24], in the experiment on PMMoV [1], the EC50 was determined as 30.7 ± 1.2 µg/mL (≈ 47.5 µM) and the Curative activity was 72.5 ± 2.2%. In the experiment on PMMoV [2], the EC50 was 919 ± 10.2 µg/mL (≈ 1420 µM) and the Protective activity was found to be 40.8 ± 3.5%. For the same compound, in the experiment on PMMoV [3] (at 500 µg/mL), the pest or weed control at 500 µg/mL worked out at 65.1 ± 4.2%. Besides, the half-maximal effective concentration (EC50) in the experiment with PMMoV [3] was 145 ± 4.7 µg/mL (≈ 224 µM). On PMMoV CP [4], this compound had a Kd of 109 µM.

In the case of `CC(=O)OCC1OC(n2cnc3c(N4CCOCC4)nc(Cl)nc32)C(NS(=O)(=O)c2ccc(C)cc2)C(OC(C)=O)C1OC(C)=O` (stereo not drawn) [C25], the 50% effective concentration (EC50) in the experiment on PMMoV [1] is 167 ± 5.2 µg/mL (≈ 245 µM); with PMMoV [2], 345 ± 11.3 µg/mL (≈ 507 µM); with PMMoV [3] it was 573 ± 10.9 µg/mL (≈ 841 µM). For the same compound, in the experiment on PMMoV [1], the Curative activity was 59.0 ± 3.5%. In the experiment with PMMoV [2], this compound had a Protective activity of 52.3 ± 1.1%. Also, the pest or weed control at 500 µg/mL with PMMoV [3] (at 500 µg/mL) worked out at 46.9 ± 1.8%. The compound also registered a Kd at PMMoV CP [4] of 264 ± 25.1 µM.

For `CC(=O)OCC1OC(n2cnc3c(N4CCOCC4)nc(F)nc32)C(NS(=O)(=O)c2ccc(C(F)(F)F)cc2)C(OC(C)=O)C1OC(C)=O` (stereo not drawn) [C28], in the experiment on PMMoV [1], the 50% effective concentration (EC50) came out at 45.4 ± 3 µg/mL (≈ 63.2 µM) and the Curative activity is given as 69.4 ± 4.9%. For the same compound, in the experiment on PMMoV [2], the EC50 was 633 ± 13.6 µg/mL (≈ 881 µM) and the Protective activity is given as 42.9 ± 0.7%. Also, the pest or weed control at 500 µg/mL in the experiment with PMMoV [3] (at 500 µg/mL) came to 44 ± 4.3%. The half-maximal effective concentration (EC50) in the experiment on PMMoV [3] turned out to be 576 ± 14.9 µg/mL (≈ 801 µM).

For `CC(=O)OCC1OC(n2cnc3c(N4CCOCC4)ncnc32)C(NS(=O)(=O)c2cccc(C(F)(F)F)c2)C(OC(C)=O)C1OC(C)=O` (stereo not drawn) [C29], the EC50 in the experiment on PMMoV [1] was 64.8 ± 3.1 µg/mL (≈ 92.5 µM); in the experiment on PMMoV [2] it was 88.4 ± 6.3 µg/mL (≈ 126 µM); in the experiment with PMMoV [3] it was 353 ± 18.7 µg/mL (≈ 504 µM). Moreover, the Curative activity in the experiment with PMMoV [1] was 69.8 ± 4.3%. In the experiment on PMMoV [2], the Protective activity is 64.9 ± 4.7%. The pest or weed control at 500 µg/mL in the experiment on PMMoV [3] (at 500 µg/mL) came to 53.4 ± 0.8%.

For `CC(=O)OCC1OC(n2cnc3c(N4CCOCC4)ncnc32)C(NS(=O)(=O)c2ccc(F)cc2)C(OC(C)=O)C1OC(C)=O` (stereo not drawn) [C30], the values for the EC50 in the experiment with PMMoV [1], in the experiment on PMMoV [2] and in the experiment with PMMoV [3] were 60.2 ± 3.1 µg/mL (≈ 92.5 µM), 262 ± 10.3 µg/mL (≈ 402 µM) and 20.4 ± 4.9 µg/mL (≈ 31.4 µM), respectively. Further, in the experiment on PMMoV [1], the Curative activity was found to be 67.9 ± 3.3%. For the same compound, the Protective activity in the experiment on PMMoV [2] was found to be 58.9 ± 3.8%. Also, the pest or weed control at 500 µg/mL with PMMoV [3] (at 500 µg/mL) stood at 61.7 ± 4.6%.

As for `CC(=O)OCC1OC(n2cnc3c(N4CCOCC4)nc(F)nc32)C(NS(=O)(=O)c2ccc(F)cc2)C(OC(C)=O)C1OC(C)=O` (stereo not drawn) [C31], in the experiment with PMMoV [1], the concentration giving a half-maximal response (EC50) was 29.6 ± 1.1 µg/mL (≈ 44.3 µM) and the Curative activity was 61.9 ± 3.3%. Besides, in the experiment on PMMoV [2], the half-maximal effective concentration (EC50) stood at 99.6 ± 3.8 µg/mL (≈ 149 µM) and the Protective activity is recorded as 56.0 ± 1.9%. In addition, the pest or weed control at 500 µg/mL in the experiment with PMMoV [3] (at 500 µg/mL) was determined as 68.5 ± 1.7%. For the same compound, in the experiment with PMMoV [3], the EC50 stood at 50 ± 2 µg/mL (≈ 74.8 µM).

Values taken from publication PMC12957839, “Antiviral activity and mechanism of purine morpholine nucleoside analogues incorporating a sulfonamide fragment” (Journal of Advanced Research, 2025).
